From US10413529B2, “Methods of inhibiting cataracts and presbyopia” (UNIVERSITY OF MASSACHUSETTS, priority 2013, dated 2019)
Values joined by “and” are separate entries in the source; they are usually repeats but may differ in a detail not shown here. Equal values may be shown once.

System: human corneal epithelial cells (EpiOcular™ tissue)
Experiment: Trans-epithelial transport across epithelium construct
Assay type: in vitro ADME
Method: The transport of the CAPEG4 across an epithelium construct was studied. The epithelium is the outer layer of the cornea and transport across the epithelium has proven to be challenging.
Specifically, the CAPEG4 construct in solution (10) was added to the top of an apparatus including a tissue culture plastic insert (11) containing culture medium (12) and an epithelium construct. (FIG. 19).

[1] = 16 mg/mL CAPEG4, blank insert (no tissue) at 15 min

## NCCOCCOCCOCCOCCC(=O)O [CAPEG4]
1 mg/ml CAPEG4, 15 min
  Bottom Average: 13 mcg/well
  Top Average: 449 mcg/well
  Top mcg/well: 427 mcg/well and 472 mcg/well
1 mg/ml CAPEG4, 15 min, stock 543 mcg/well
  Bottom % (stock): 2.4%
1 mg/ml CAPEG4, 30 min
  Bottom Average: 31 mcg/well
  Bottom mcg/well: 26 mcg/well and 37 mcg/well
  Top Average: 446 mcg/well
  Top mcg/well: 448 mcg/well and 445 mcg/well
1 mg/ml CAPEG4, 30 min, stock 543 mcg/well
  Bottom % (stock): 5.8%
1 mg/ml CAPEG4, 45 min
  Bottom Average: 8 mcg/well
  Bottom mcg/well: 9 mcg/well and 8 mcg/well
  Top Average: 443 mcg/well
  Top mcg/well: 459 mcg/well and 428 mcg/well
1 mg/ml CAPEG4, 45 min, stock 543 mcg/well
  Bottom % (stock): 1.5%
1 mg/ml CAPEG4, 60 min
  Bottom Average: 9 mcg/well
  Bottom mcg/well: 8 mcg/well and 11 mcg/well
  Top Average: 421 mcg/well
  Top mcg/well: 454 mcg/well and 388 mcg/well
1 mg/ml CAPEG4, 60 min, stock 543 mcg/well
  Bottom % (stock): 1.7%
1 mg/ml CAPEG4, 90 min
  Bottom Average: 31 mcg/well
  Top Average: 463 mcg/well
  Top mcg/well: 467 mcg/well and 459 mcg/well
1 mg/ml CAPEG4, 90 min, stock 543 mcg/well
  Bottom % (stock): 5.7%
1 mg/ml CAPEG4, 120 min
  Bottom Average: 25 mcg/well
  Bottom mcg/well: 21 mcg/well and 30 mcg/well
  Top Average: 481 mcg/well
  Top mcg/well: 453 mcg/well and 510 mcg/well
1 mg/ml CAPEG4, 120 min, stock 543 mcg/well
  Bottom % (stock): 4.7%
1 mg/ml CAPEG4, Time 0 harvest
  Bottom Average: 3 mcg/well
  Bottom mcg/well: 4 mcg/well and 3 mcg/well
  Top Average: 450 mcg/well
  Top mcg/well: 446 mcg/well and 453 mcg/well
1 mg/ml CAPEG4, Time 0 harvest, stock 543 mcg/well
  Bottom % (stock): 0.6%
16 mg/mL CAPEG4, 15 min
  Bottom Average: 60 mcg/well
  Bottom mcg/well: 58 mcg/well and 62 mcg/well
  Top Average: 6375 mcg/well
  Top mcg/well: 5842 mcg/well and 6908 mcg/well
16 mg/mL CAPEG4, 15 min, stock 8186 mcg/well
  Bottom % (stock): 0.7%
16 mg/mL CAPEG4, 30 min
  Bottom Average: 99 mcg/well
  Bottom mcg/well: 93 mcg/well and 105 mcg/well
  Top Average: 6312 mcg/well
  Top mcg/well: 6099 mcg/well and 6526 mcg/well
16 mg/mL CAPEG4, 30 min, stock 8186 mcg/well
  Bottom % (stock): 1.2%
16 mg/mL CAPEG4, 45 min
  Bottom Average: 548 mcg/well
  Bottom mcg/well: 677 mcg/well and 418 mcg/well
  Top Average: 6335 mcg/well
  Top mcg/well: 6313 mcg/well and 6356 mcg/well
16 mg/mL CAPEG4, 45 min, stock 8186 mcg/well
  Bottom % (stock): 6.7%
16 mg/mL CAPEG4, 60 min
  Bottom Average: 149 mcg/well
  Bottom mcg/well: 160 mcg/well and 139 mcg/well
  Top Average: 6972 mcg/well
  Top mcg/well: 6450 mcg/well and 7494 mcg/well
16 mg/mL CAPEG4, 60 min, stock 8186 mcg/well
  Bottom % (stock): 1.8%
16 mg/mL CAPEG4, 90 min
  Bottom Average: 525 mcg/well
  Bottom mcg/well: 525 mcg/well
  Top Average: 6457 mcg/well
  Top mcg/well: 6122 mcg/well and 6792 mcg/well
16 mg/mL CAPEG4, 90 min, stock 8186 mcg/well
  Bottom % (stock): 6.4%
[1]
  Bottom Average: 1837 mcg/well
  Bottom mcg/well: 1837 mcg/well
  Top Average: 7857 mcg/well
  Top mcg/well: 7857 mcg/well
16 mg/mL CAPEG4, blank insert (no tissue) at 15 min, stock 8186 mcg/well
  Bottom % (stock): 23%
